Earlier results as cited in patent publication US20030180373A1, “Method for viral inactivation of hydro-alcoholic solutions” (priority 2000, published 2003).

System: viruses of Norwalk and Norwalk type
Conditions: disinfectants conventionally used; ethanol at a concentration of 75%

SMILES: CCO [ethanol]
- Effect of the disinfectant on the virus: no effect

SMILES: [Na+].[O-]Cl [bleach]
- Effect of the disinfectant on the virus: capable of destroying the virus

SMILES: O=CCCCC=O [glutaraldehyde]
- Effect of the disinfectant on the virus: capable of destroying the virus
